Data reported in paper PMC6941952, “A homogeneous bioluminescent immunoassay to probe cellular signaling pathway regulation” (Communications Biology, 2020).
Several values for one entry are separate records, joined by “and”; a condition that tells them apart may be missing. Equal entries are not always repeated. Where a SMILES comes first, the peptide text is derived from it. The star is where a group is joined. Cbz = O=C(OCc1ccccc1)*

Tests used:
[1] = tested on: phospho-IκBα (Ser32); assay: NanoBiT cell-based immunoassay, phosphorylated IκBα in MCF-7 cells; parameters: species or system human; conditions: for P-IkB Average: background subtracted
Experimental: (§1) Prior to NanoBiT Cell-Based Immunoassay, 50,000 cells were seeded in 160 µl of complete growth media per well of a 96-well plate and incubated overnight. The cells were checked under microscope and it was determined that 50,000 cells per well in 96-well plate is under 90% confluency for all cells tested. If necessary, the cell culture media were replaced with serum-free media after the cells were stably adherent on the plate and incubated overnight. To treat cells with activators or inhibitors, medium was changed to 30 µl of medium containing inhibitors. If activation of a specific pathway is needed, the cells were stimulated with 10 µl of medium containing activators. To lyse the cells, 10 µl of lysis buffer containing 0.1% digitonin diluted in 1X immunoassay buffer with protease and phosphatase inhibitors was added and the plates were mixed vigorously for 20 min. Then, 50 µl of an antibody mix containing two primary antibodies against the target protein and NanoBiT detecting antibodies (0.3 µl each per well), diluted in 1X immunoassay buffer was added to the lysates. The plates were incubated at 23 °C for 90 min, followed by the addition of 25 µl of Nano-Glo® reagent consisting of Nano-Glo® Luciferase Assay Substrate mixed with 1X immunoassay buffer. Luminescence was measured using a plate-reading luminometer.
In all, 50,000 MCF-7 cells were seeded in 160 µl complete growth medium per well of a 96-well plate and incubated overnight. Half of the cells were treated with 50 ng per ml TNFα and half with vehicle. Cells were lysed as described above and a mixture of NanoBiT secondary antibodies with primary antibodies at the matrix concentrations described in Fig. 2a were added. After 90 min incubation, the Nano-Glo® reagent was added to the reactions as described above and luminescence was measured using a plate-reading luminometer.
(§2) Single dose or dose response inhibitor treatments were performed prior to activation of the pathways as follows. For IκBα, the cells were treated in 30 µl medium with IKK16 or MG132 for 60 min before the addition of 10 µl of DMEM containing appropriate concentration of TNFα. To measure phosphorylation of AKT or STAT3, the corresponding NanoBiT immunoassays were developed with MCF-7 or A431 cells, respectively, according the same scheme used to develop the IκBα assay using the primary antibodies for AKT and STAT3 described in the reagents section. For the AKT assay, MCF-7 cells were incubated overnight in phenol-red free DMEM medium (Gibco #21063-029) without serum. Treatment with LY294002 was performed in 30 µl medium and cells were incubated for 60 min before the addition of 1 µM Insulin. To measure STAT3 phosphorylation, A431 cells were incubated overnight in DMEM medium without serum. […] After addition of the stimulators, the cells were incubated for additional times as follows. IκBα phosphorylation and degradation analyses required both time courses and single time points as described in figures. […] The NanoBiT immunoassay protocol was followed as described above.
(§3) All 96-well assay plates were read using a GloMax® 96 Microplate Luminometer from Promega. The instrument was set to 0.5 s integration time. In order to obtain net change of signal, the reagent background values (signal from the well containing all reagent except primary antibodies) were subtracted from the sample values. To plot and analyze the data, Microsoft Excel and GraphPad Prism® Software were used. IC50 values were determined by using a nonlinear regression fit to a sigmoidal dose response (variable slope).

[2] = tested on: total IκBα; assay: NanoBiT cell-based immunoassay, total IκBα in MCF-7 cells; parameters: species or system human; conditions: for Total IkB Average: background subtracted
Experimental: as §1, with “The cells were checked under microscope and it was determined that 50,000 cells per well in 96-well plate is under 90% confluency for all cells tested.” left out
as §2, with “For the AKT assay, MCF-7 cells were incubated overnight in phenol-red free DMEM medium (Gibco #21063-029) without serum.” left out
as §3

CC(C)C[C@@H](C=O)NC(=O)[C@H](CC(C)C)NC(=O)[C@H](CC(C)C)NC(=O)OCc1ccccc1 [MG132] (Cbz-Leu-Leu-Leu-aldehyde)
P-IkB Raw data ([1]; MG132, TNF 0 min): 22120 and 22340 and 21000 and 22420
P-IkB Subtract reagent background ([1]; MG132, TNF 0 min): 5850 and 5550 and 5770 and 4430
P-IkB Average ([1]; MG132, TNF 0 min): 5400
P-IkB Raw data ([1]; MG132, TNF 2 min): 23520 and 22950 and 21920 and 24690
P-IkB Subtract reagent background ([1]; MG132, TNF 2 min): 8120 and 6950 and 6380 and 5350
P-IkB Average ([1]; MG132, TNF 2 min): 6700
P-IkB Raw data ([1]; MG132, TNF 4 min): 23590 and 23010 and 22240 and 23600
P-IkB Subtract reagent background ([1]; MG132, TNF 4 min): 7030 and 7020 and 6440 and 5670
P-IkB Average ([1]; MG132, TNF 4 min): 6540
P-IkB Raw data ([1]; MG132, TNF 6 min): 26150 and 25190 and 24160 and 26140
P-IkB Raw data ([1]; MG132, TNF 8 min): 31970 and 30150 and 26560 and 32480
P-IkB Subtract reagent background ([1]; MG132, TNF 8 min): 15910 and 15400 and 13580 and 9990
P-IkB Average ([1]; MG132, TNF 8 min): 13720
P-IkB Raw data ([1]; MG132, TNF 10 min): 38930 and 36060 and 31570 and 39590
P-IkB Subtract reagent background ([1]; MG132, TNF 10 min): 23020 and 22360 and 19490 and 15000
P-IkB Average ([1]; MG132, TNF 10 min): 19968
P-IkB Raw data ([1]; MG132, TNF 12 min): 47120 and 43420 and 37410 and 48430
P-IkB Subtract reagent background ([1]; MG132, TNF 12 min): 31860 and 30550 and 26850 and 20840
P-IkB Average ([1]; MG132, TNF 12 min): 27525
P-IkB Raw data ([1]; MG132, TNF 15 min): 56120 and 51230 and 43530 and 56550
P-IkB Subtract reagent background ([1]; MG132, TNF 15 min): 39980 and 39550 and 34660 and 26960
P-IkB Average ([1]; MG132, TNF 15 min): 35288
P-IkB Raw data ([1]; MG132, TNF 30 min): 63690 and 60630 and 51570 and 63760
P-IkB Subtract reagent background ([1]; MG132, TNF 30 min): 47190 and 47120 and 44060 and 35000
P-IkB Average ([1]; MG132, TNF 30 min): 43343
TNFα-induced degradation of IκBα ([2]; MCF-7 cells, 20 µM 1 h pretreatment, TNFα 50 ng per ml): inhibited
Total IkB Raw data ([2]; MG132, TNF 0 min): 86990 and 84090 and 85790 and 87340
Total IkB Subtract reagent background ([2]; MG132, TNF 0 min): 70533 and 70183 and 67283 and 68983
Total IkB Average ([2]; MG132, TNF 0 min): 69245
Total IkB Raw data ([2]; MG132, TNF 2 min): 89610 and 87100 and 86710 and 88460
Total IkB Subtract reagent background ([2]; MG132, TNF 2 min): 71653 and 72803 and 70293 and 69903
Total IkB Average ([2]; MG132, TNF 2 min): 71163
Total IkB Raw data ([2]; MG132, TNF 4 min): 87350 and 84610 and 87580 and 85650
Total IkB Subtract reagent background ([2]; MG132, TNF 4 min): 68843 and 70543 and 67803 and 70773
Total IkB Average ([2]; MG132, TNF 4 min): 69490
Total IkB Raw data ([2]; MG132, TNF 6 min): 86900 and 82270 and 84580 and 89030
Total IkB Subtract reagent background ([2]; MG132, TNF 6 min): 72223 and 70093 and 65463 and 67773
Total IkB Average ([2]; MG132, TNF 6 min): 68888
Total IkB Raw data ([2]; MG132, TNF 8 min): 86550 and 79990 and 82380 and 88200
Total IkB Subtract reagent background ([2]; MG132, TNF 8 min): 71393 and 69743 and 63183 and 65573
Total IkB Average ([2]; MG132, TNF 8 min): 67473
Total IkB Raw data ([2]; MG132, TNF 10 min): 86190 and 79560 and 78070 and 90680
Total IkB Subtract reagent background ([2]; MG132, TNF 10 min): 73873 and 69383 and 62753 and 61263
Total IkB Average ([2]; MG132, TNF 10 min): 66818
Total IkB Raw data ([2]; MG132, TNF 12 min): 85440 and 78280 and 77940 and 85890
Total IkB Subtract reagent background ([2]; MG132, TNF 12 min): 69083 and 68633 and 61473 and 61133
Total IkB Average ([2]; MG132, TNF 12 min): 65080
Total IkB Raw data ([2]; MG132, TNF 15 min): 85380 and 79290 and 77150 and 87460
Total IkB Subtract reagent background ([2]; MG132, TNF 15 min): 70653 and 68573 and 62483 and 60343
Total IkB Average ([2]; MG132, TNF 15 min): 65513
Total IkB Raw data ([2]; MG132, TNF 30 min): 74090 and 69470 and 69970 and 74150
Total IkB Subtract reagent background ([2]; MG132, TNF 30 min): 57343 and 57283 and 52663 and 53163
Total IkB Average ([2]; MG132, TNF 30 min): 55113
